Results reported in the supplement of paper PMC10307832.

How the values were obtained:
Experiment in all cases: relative viability (nuclei count vs DMSO), 5 days (fraction); higher = more cells survive
Pazopanib + OSI-027 = compound: Cc1ccc(Nc2nccc(N(C)c3ccc4c(C)n(C)nc4c3)n2)cc1S(N)(=O)=O [Pazopanib] + COc1cccc2cc(-c3nc([C@H]4CC[C@H](C(=O)O)CC4)n4ncnc(N)c34)[nH]c12 [OSI-027] (partner 0.5 µM)
In short: (§1)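 Nuclei were stained with Hoechst during a one-step fixation (final 0.05% Triton X-100, 1% formaldehyde, 1 ug/ml Hoechst) carried out 5 days after dosing, then counted on 4× images. The cells, lung cancer lines in 1536-well plates, had been dosed by pin tool the day after seeding with one drug alone or a fixed anchor-drug dose plus five library-drug doses (not always all listed) in √10 steps. Relative viability is the nuclei count in treated wells divided by that in vehicle wells, and each value is the median of duplicate plates.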

Pazopanib + Decitabine = compound: Cc1ccc(Nc2nccc(N(C)c3ccc4c(C)n(C)nc4c3)n2)cc1S(N)(=O)=O [Pazopanib] + Nc1ncn([C@H]2C[C@H](O)[C@@H](CO)O2)c(=O)n1 [Decitabine] (partner 2 µM)
In short: as §1

Pazopanib + Olaparib = compound: Cc1ccc(Nc2nccc(N(C)c3ccc4c(C)n(C)nc4c3)n2)cc1S(N)(=O)=O [Pazopanib] + O=C(c1cc(Cc2n[nH]c(=O)c3ccccc23)ccc1F)N1CCN(C(=O)C2CC2)CC1 [Olaparib] (partner 8 µM)
In short: as §1

Ponatinib + Pemetrexed = compound: Cc1ccc(C(=O)Nc2ccc(CN3CCN(C)CC3)c(C(F)(F)F)c2)cc1C#Cc1cnc2cccnn12 [Ponatinib] + Nc1nc2[nH]cc(CCc3ccc(C(=O)N[C@@H](CCC(=O)O)C(=O)O)cc3)c2c(=O)[nH]1 [Pemetrexed] (partner 0.2 µM)
In short: as §1

Cell Line | relative viability (Pazopanib + OSI-027; first compound 0.01 µM) | relative viability (Pazopanib + OSI-027; first compound 0.03162 µM) | relative viability (Pazopanib + OSI-027; first compound 0.1 µM) | relative viability (Pazopanib + OSI-027; first compound 0.3162 µM) | relative viability (Pazopanib + OSI-027; first compound 1 µM) | relative viability (Pazopanib + Decitabine; first compound 0.01 µM) | relative viability (Pazopanib + Decitabine; first compound 0.03162 µM) | relative viability (Pazopanib + Decitabine; first compound 0.1 µM) | relative viability (Pazopanib + Decitabine; first compound 0.3162 µM) | relative viability (Pazopanib + Decitabine; first compound 1 µM) | relative viability (Pazopanib + Olaparib; first compound 0.01 µM) | relative viability (Pazopanib + Olaparib; first compound 0.03162 µM) | relative viability (Pazopanib + Olaparib; first compound 0.1 µM) | relative viability (Pazopanib + Olaparib; first compound 0.3162 µM) | relative viability (Pazopanib + Olaparib; first compound 1 µM) | relative viability (Ponatinib + Pemetrexed; first compound 0.002 µM) | relative viability (Ponatinib + Pemetrexed; first compound 0.006325 µM) | relative viability (Ponatinib + Pemetrexed; first compound 0.06325 µM) | relative viability (Ponatinib + Pemetrexed; first compound 0.2 µM)
NCI-H2342 | 0.535 | 0.665 | 0.564 | 0.624 | 0.524 | 0.678 | 0.684 | 0.918 | 0.612 | 0.697 | 0.385 | 0.443 | 0.481 | 0.386 | 0.365 | 0.71 | 0.733 | 0.726 | 0.646
NCI-H650 | 0.464 | 0.523 | 0.517 | 0.544 | 0.482 | 0.303 | 0.299 | 0.353 | 0.293 | 0.353 | 0.404 | 0.411 | 0.394 | 0.391 | 0.37 | 0.815 | 0.965 | 0.948 | 0.872
NCI-H1395 | 0.606 | 0.741 | 0.605 | 0.616 | 0.706 | 0.651 | 0.69 | 0.638 | 0.766 | 0.743 | 0.428 | 0.44 | 0.461 | 0.446 | 0.473 | 0.755 | 0.819 | 0.871 | 0.624
NCI-H358 | 0.843 | 0.999 | 0.828 | – | 1.03 | 0.217 | 0.22 | 0.219 | 0.25 | 0.276 | 0.757 | 0.662 | 0.629 | 0.639 | 0.599 | 0.168 | 0.162 | 0.189 | 0.174
NCI-H2085 | 0.817 | 0.782 | 0.752 | 0.719 | 0.787 | 0.573 | 0.508 | 0.555 | 0.602 | 0.581 | 0.821 | 0.759 | 0.796 | 0.704 | 0.713 | 0.852 | 0.894 | 1.04 | 0.874
NCI-H838 | 0.435 | 0.488 | 0.373 | 0.42 | 0.555 | 0.458 | 0.462 | 0.507 | 0.414 | 0.523 | 0.745 | 0.843 | 0.776 | 0.816 | 0.82 | 0.234 | 0.249 | 0.255 | 0.227
NCI-H460 | 0.601 | 0.912 | 0.645 | 0.665 | 0.725 | 0.561 | 0.513 | 0.551 | 0.488 | 0.552 | 0.51 | 0.413 | 0.572 | 0.406 | 0.409 | 0.06 | 0.062 | 0.0629 | 0.0632
LOU-NH91 | 0.701 | 0.753 | 0.719 | 0.781 | 0.728 | 0.808 | 0.78 | 0.828 | 0.828 | 0.769 | 0.925 | 0.888 | 0.926 | 0.96 | 0.931 | 0.335 | 0.421 | 0.463 | 0.415
NCI-H322M | 0.531 | 0.646 | 0.533 | 0.636 | 0.607 | 0.696 | 0.748 | 0.71 | 0.8 | 0.754 | 0.885 | 0.817 | 0.881 | 0.71 | 0.71 | 0.639 | 0.677 | 0.655 | 0.589
NCI-H520 | 0.271 | 0.268 | 0.259 | 0.301 | 0.262 | 0.48 | 0.471 | 0.569 | 0.509 | 0.572 | 0.38 | 0.277 | 0.414 | 0.348 | 0.285 | 0.59 | 0.636 | 0.556 | 0.407
NCI-H661 | 0.669 | 0.784 | 0.745 | 0.689 | 0.735 | 0.498 | 0.576 | 0.578 | 0.598 | 0.596 | 0.781 | 0.782 | 0.792 | 0.691 | 0.71 | 0.965 | 0.968 | 0.932 | 0.87
NCI-H1944 | – | 0.422 | 0.46 | 0.441 | 0.48 | 0.463 | 0.424 | 0.424 | 0.427 | 0.467 | 0.425 | 0.353 | 0.424 | 0.418 | 0.475 | 0.631 | 0.662 | 0.676 | 0.719
NCI-H1734 | 0.56 | 0.555 | 0.558 | 0.567 | 0.605 | 0.498 | 0.492 | 0.461 | 0.532 | 0.512 | 0.626 | 0.627 | 0.578 | 0.598 | 0.591 | 0.394 | 0.399 | 0.44 | 0.395
LXF-289 | 0.815 | 0.774 | 0.805 | 0.77 | 0.843 | 0.395 | 0.351 | 0.39 | 0.373 | 0.381 | 1.05 | 1.06 | 1.1 | 1.05 | 1.05 | 0.74 | 0.846 | 0.982 | 0.891
H3255 | 0.512 | 0.535 | 0.638 | 0.606 | 0.752 | 0.42 | 0.618 | 0.602 | 0.718 | 0.668 | 0.583 | 0.541 | 0.627 | 0.564 | 0.564 | 0.527 | 0.607 | 0.614 | 0.546
201T | 0.83 | 0.575 | 0.799 | 0.742 | 0.747 | 0.831 | 0.886 | 0.866 | 0.879 | 0.838 | 0.863 | 0.865 | 0.85 | 0.825 | 0.822 | 0.319 | 0.324 | 0.346 | 0.352
NCI-H2126 | 0.643 | 0.612 | 0.68 | 0.718 | 0.719 | 0.517 | 0.59 | 0.614 | 0.561 | 0.643 | 0.825 | 0.908 | 0.988 | 0.946 | 0.887 | 0.835 | 0.757 | 0.818 | 0.658
